In patent US20230337677A1, “ARYL AND PYRIDYL AMIDE PESTICIDES AND COMPOSITIONS THEREOF” (University of Florida Research Foundation, Incorporated, priority 2019, published 2023):
Entries after “also recorded” stand apart in the source; their conditions may differ. Read-outs that look alike come from different tables or passages of the source.

Assays:
[1] = system: Anopheles gambiae G3 sensitive strain; assay: Topical toxicity (24 hour mortality), An. gambiae G3; format: in vivo
Method: (§1) The Aedes aegypti strains Orlando (sensitive) as well as the Puerto Rico (PR, resistant to permethrin) were used. The Anopheles gambiae (G3 sensitive strain, as well as Akron kdr (Akdr) strain, resistant to pyrethroids were also assessed. The larvae were provided by the USDA, Gainesville Fl, and raised in a pan with tap water maintained at 28° C. Larvae were fed a ground liver and yeast mixture, and pupae were placed in emergence cages. Adults were held at 28° C. and provided with cotton balls soaked in 10% sugar water for rearing and for all bioassays.
(§2) Female adults from 3 to 6 days were used for the experiments. The drug was dissolved in ethanol and then applied with a micro-applicator on the thorax, between the legs: 200 nL of drug per female mosquito, with different concentrations of the drug; 10 mosquitos were treated together per concentration per replicate, and put together in a small container with free access to sweet water. Mortality, i.e. no visible movement, was assessed 24 hours after treatment. Every compound was assessed on at least 3 different cohorts of mosquitoes, and the LD50 values and slopes were determined with Probit analysis, corrected with Abbott's formula.

[2] = system: Aedes aegypti strain Orlando (sensitive); assay: Topical toxicity (24 hour mortality), Ae. aegypti Orlando; format: in vivo
Method: as §1, §2

[3] = system: Anopheles gambiae Akron kdr (Akdr) strain, resistant to pyrethroids; assay: Topical toxicity (24 hour mortality), An. gambiae Akdr; format: in vivo; details: for An. gambiae RR (resistance ratio): 24 h LD50 resistant strain (AKDR)/24 h LD50 susceptible strain (G3)
Method: as §1, §2

[4] = system: Aedes aegypti mosquitoes, insecticide-susceptible Orlando strain; format: in vivo; details: for 1 h % Repellency, 100 μg/cm^2: screened at 100 μg/cm^2, strain not given; for 1 h Repellency EC50, μg/cm^2: (OR)
Method: The tubes as shown were held horizontally on the bench.
For assessing behavioral repellency (FIG. 1), Aedes aegypti mosquitoes were used from the insecticide-susceptible Orlando strain and the pyrethroid-resistant Puerto Rico strain. Sixteen female mosquitoes were transferred to a glass tube (12.5 cm long, 2.5 cm outer diameter) with the ends covered with netting. Each compound was dissolved in 1 mL of acetone and serial dilutions ranging from 30-0.01 μg/ml were made. Circular filter papers (5 cm^2) were saturated with 50 μL of each concentration and allowed 10 min for solvent evaporation. The filter papers were then placed in clear conical polypropylene caps and fixed to the end of the glass tubes. The netting prevented mosquito contact with the filter paper. The tubes were then aligned with a mark denoting the midline and the proportion of mosquitoes on the chemically treated side was scored for up to 60 min. At the end of the test, the tube was placed in a cage and the ability of the mosquitoes to fly out of the tube was assessed for 30 min. […] This post-test evaluated whether any non-responding mosquitoes (not repelled) resulted from intoxication or disorientation from the test chemical. For assessment of lethality, insects were held for 24 hr under constant exposure in glass tubes having treated filter papers.
Compounds were first screened at 100 μg/cm^2 for repellency and 24 h mortality.

[5] = system: Aedes aegypti mosquitoes, insecticide-susceptible Orlando strain
[6] = topical application, 24 h mortality, female adults, susceptible strain G3
[7] = topical application, 24 h mortality, female adults, susceptible Orlando strain
[8] = topical application, 24 h mortality, female adults, pyrethroid-resistant Akdr strain
[9] = screened at 100 μg/cm^2, 24 h, strain not given

SMILES	An. gambiae G3 LD50 [1, 6] [ng/mg]	Ae. aegypti OR LD50 [2, 7] [ng/mg]	An. gambiae AKDR LD50 [3, 8] [ng/mg]	further results
O=C(Nc1cc(Cl)nc(C(F)(F)F)c1)C(F)(F)F [GMR035]	30.5	106	52.1	An. gambiae RR (resistance ratio) [3]: 1.7
O=C(Nc1cc(Cl)nc(C(F)(F)F)c1)C(F)F [GMR034]	20.8	1454	23.8	An. gambiae RR (resistance ratio) [3]: 1.1
O/N=C(\Nc1cc(Cl)nc(C(F)(F)F)c1)C(F)(F)C(F)(F)C(F)(F)F [GMR105]				1 h % Repellency, 100 μg/cm^2 ([4]; 1 h): 24%; 24 h % Mortality, 100 μg/cm^2 [5, 9]: 21%
C=CCCCC(=O)Nc1cc(C(F)(F)F)cc(C(F)(F)F)c1 [MTFI-3-1C]				1 h % Repellency, 100 μg/cm^2 ([4]; 1 h): 38%; 24 h % Mortality, 100 μg/cm^2 [5, 9]: 0%
O=C(Nc1cc(Cl)nc(Cl)c1)C(F)(F)C(F)(F)OC(F)(F)F [GMR084]	6.04	17.8	11.00	An. gambiae RR (resistance ratio) [3]: 1.8
CC(C)(F)C(=O)Nc1ccccc1C(F)(F)F [MTFI-5-5A]				1 h % Repellency, 100 μg/cm^2 ([4]; 1 h): 82%; vapor repellency / mortality, statement in words (Example 8) ([4]; structure-activity analysis of Table 2): reduced repellency; also recorded: little to no activity; 24 h % Mortality, 100 μg/cm^2 [5, 9]: 3%
Cc1cc(NC(=O)C(F)F)cc(C)n1 [GMR047]	>100	>3000	>100	
O=C(Nc1cc(F)nc(F)c1)C(F)(F)C(F)(F)F [GMR045]	>100	302	>100	
CCC(=O)Nc1cc(F)c(F)c(F)c1 [GMR143]				1 h Repellency EC50, μg/cm^2 ([4]; 1 h): 23 μg/cm^2; 1 h % Repellency, 100 μg/cm^2 ([4]; 1 h): 88%; 24 h LC50, μg/cm^2 ([5]; 24 h, LC50 (OR)): 95 μg/cm^2; 24 h % Mortality, 100 μg/cm^2 [5, 9]: 53%
O=C(Nc1cc(F)nc(F)c1)C(F)(F)C(F)(F)C(F)(F)F [GMR046]	>100	300	>100	
O=C(CCCC(F)(F)F)Nc1cc(Cl)nc(Cl)c1 [GMR052]	>100	2743	>100	
O=C(Nc1cc(F)c(F)c(F)c1F)C(F)(F)F [MTFI-5-4B]				1 h % Repellency, 100 μg/cm^2 ([4]; 1 h): 82%; 24 h % Mortality, 100 μg/cm^2 [5, 9]: 0%
O=C(Nc1cc(Br)nc(Br)c1)C(F)(F)C(F)(F)C(F)(F)F [GMR042]	11.4	24	4.7	An. gambiae RR (resistance ratio) [3]: 0.4
N#CC(F)(F)C(=O)Nc1cc(Cl)nc(Cl)c1 [GMR101]	>100	1841	>100	
O=C(CC1CC1)Nc1ccccc1C(F)(F)F [MTFI-5-5C]				1 h Repellency EC50, μg/cm^2 ([4]; 1 h): 34 μg/cm^2; 1 h % Repellency, 100 μg/cm^2 ([4]; 1 h): 82%; 24 h % Mortality, 100 μg/cm^2 [5, 9]: 0%
O=C(Nc1cc(C(F)(F)F)cc(C(F)(F)F)c1)C(F)(F)F [MTFI-3-1G]				knockdown in 1 hr repellency test (XXkd = number of insects incapacitated out of 16 females) ([4]; 100 μg/cm^2, 1 h, out of 16 females): 3; 24 h % Mortality, 100 μg/cm^2 ([5]; in vivo): 100%; 24 h LC50, μg/cm^2 ([5]; in vivo): 16 μg/cm^2
O=C(Nc1cc(Br)nc(Br)c1)C(F)(F)F [GMR040]	>100	1223	>100	

SMILES	An. gambiae G3 LD50 [1, 6] [ng/mg]	Ae. aegypti OR LD50 [2, 7] [ng/mg]	An. gambiae AKDR LD50 [3, 8] [ng/mg]	further results
O=C(Nc1cc(F)nc(F)c1)C(F)(F)C(F)(F)C(F)(F)C(F)(F)C(F)(F)F [GMR072]	11.00	114	17	An. gambiae RR (resistance ratio) [3]: 1.5
O=C(Nc1cc(F)nc(F)c1)C(F)(F)F [GMR044]	>100	1996	>100	
CC(C)(C)c1cccc(NC(=O)CCl)c1 [compound 1]				1h % repellency ([4]; Table 3B, Screened at μg/cm^2): 6%; 24h % mortality ([5]; Table 3B, Screened at μg/cm^2): 0%
C=CC(=O)Nc1ccccc1N [GMR022]				1 h % Repellency, 100 μg/cm^2 ([4]; 1 h): −8%; 24 h % Mortality, 100 μg/cm^2 [5, 9]: 16%
O=C(Nc1ccccc1OC(F)(F)F)C(F)(F)C(F)(F)C(F)(F)F [GMR129]	>1000	>6000	~1000	1 h % Repellency, 100 μg/cm^2 ([4]; 1 h): 34%
Cc1cc(NC(=O)C(F)(F)F)cc(C)n1 [GMR048]	>100	>1500	>100	
O=C(Nc1cc(F)nc(F)c1)C(F)F [GMR043]	>100	2480	>100	
Cc1cc(NC(=O)C(F)(F)C(F)(F)C(F)(F)F)cc(C)n1 [GMR050]	>100	>3000	>100	
Cc1cc(NC(=O)C(F)(F)C(F)(F)F)cc(C)n1 [GMR049]	>100	>3000	>100	
O=C(Nc1cc(Cl)nc(C(F)(F)F)c1)C(F)(F)C(F)(F)C(F)(F)F [compound 56]				An. gambiae G3 LD50 ([1]; Table 5, topical, 24 h): 6.50 ng/mg; Ae. aegypti OR LD50 ([2]; Table 5, topical, 24 h): 17.30 ng/mg; An. gambiae AKDR LD50 ([3]; Table 5, topical, 24 h): 5.30 ng/mg
CC(C)(C)OC(=O)N(C(=O)C(F)(F)C(F)(F)C(F)(F)F)c1cc(Cl)nc(Cl)c1 [GMR087]	23.00	54.6	20.50	An. gambiae RR (resistance ratio) [3]: 0.9
O=C(Nc1cc(Cl)nc(Cl)c1)C(F)(F)C(F)(F)C(F)(F)C(F)(F)C(F)(F)F [GMR051]	5.2	23.4	3.7	An. gambiae RR (resistance ratio) [3]: 0.7
O=C(Nc1cc(Br)nc(Br)c1)C(F)(F)C(F)(F)F [GMR041]	~100	50	~100	
O=C(Nc1cc(F)cc(F)c1)C(F)(F)C(F)(F)F [GMR188]				24 h LC50, μg/cm^2 ([5]; 24 h, LC50 (OR)): 4.9 μg/cm^2; 24 h % Mortality, 100 μg/cm^2 [5, 9]: 81%
O=C(Nc1cc(Cl)nc(C(F)(F)F)c1)C(F)(F)C(F)(F)C(F)(F)F [GMR037, N-(2-chloro-6-(trifluoromethyl)pyridin-4-yl)-2,2,3,3,4,4,4-heptafluorobutanamide]	6.5	17	5.3	An. gambiae RR (resistance ratio) [3]: 0.8
O=C(Nc1c(Cl)c(Cl)nc(Cl)c1Cl)C(F)(F)C(F)(F)C(F)(F)F [GMR074]	11.00	29	8.6	An. gambiae RR (resistance ratio) [3]: 0.8
